Earlier results in patent publication US20260041939A1, “METHODS FOR THE TREATMENT OF HY[…] TRANSCRANIAL-FOCUSED-ULTRASOUND” (SUNNYBROOK RESEARCH INSTITUTE, priority 2022, published 2026).

Test system: c-FOS expression
Details: microinjection into the tuberomammillary nucleus of rats

Q: With `CCCC(C)C1(CC)C(=O)NC(=O)NC1=O` (stereo not drawn) [Pentobarbital, pentobarbital] as the molecule, how does the “c-FOS expression in the locus coeruleus” value read?
A: Its value is “unchanged”.

Q: What about the “c-FOS expression in the tuberomammillary nucleus” value of the same molecule?
A: The value was “suppress”.

Q: And the “c-FOS expression in the ventrolateral preoptic nucleus (VLPO)” value?
A: The value was “increase”.
